Assay results reported in ChEMBL document CHEMBL1201861, “Genomics of Drug Sensitity in Cancer screening data, Wellcome Trust Sanger Institute”.

What was measured:
Experiment in all cases: cells
CP50-MEL-B = assay type: functional, cell-based, Homo sapiens; conditions: Homo sapiens, CP50-MEL-B;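 note: growth inhibition of the human cell line, measured with a cell viability read-out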
Description: SANGER: Inhibition of human CP50-MEL-B cell growth in a cell viability assay.

DEL = assay type: functional, cell-based; conditions: Homo sapiens;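 note: growth inhibition of the human DEL cell line, read out with a cell viability assay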
Description: SANGER: Inhibition of human DEL cell growth in a cell viability assay.

DOHH-2 = assay type: functional, cell-based; conditions: Homo sapiens;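 note: growth inhibition of human DOHH-2 cells, read out with a cell viability assay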
Description: SANGER: Inhibition of human DOHH-2 cell growth in a cell viability assay.

DOK = assay type: functional, cell-based, Homo sapiens; conditions: Homo sapiens, DOK;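 note: cell viability assay read-out, values reflect inhibition of cell growth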
Description: SANGER: Inhibition of human DOK cell growth in a cell viability assay.

Daoy = assay type: functional, cell-based, Homo sapiens; conditions: Homo sapiens, Daoy;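 note: daoy cell growth inhibition, read out as cell viability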
Description: SANGER: Inhibition of human Daoy cell growth in a cell viability assay.

ETK-1 = assay type: functional, cell-based, Homo sapiens; conditions: Homo sapiens, ETK-1;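 note: growth inhibition of human ETK-1 cells, read out with a cell viability assay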
Description: SANGER: Inhibition of human ETK-1 cell growth in a cell viability assay.

EW-1 = assay type: functional, cell-based, Homo sapiens; conditions: Homo sapiens, EW-1
Description: SANGER: Inhibition of human EW-1 cell growth in a cell viability assay.

EW-18 = assay type: functional, cell-based; conditions: Homo sapiens;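 note: growth inhibition of EW-18 cells, read out by a cell viability assay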
Description: SANGER: Inhibition of human EW-18 cell growth in a cell viability assay.

GCIY = assay type: functional, cell-based, Homo sapiens; conditions: Homo sapiens, GCIY;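 note: growth inhibition of the human GCIY cell line, read out by a cell viability assay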
Description: SANGER: Inhibition of human GCIY cell growth in a cell viability assay.

HCC2157 = assay type: functional, cell-based; conditions: Homo sapiens;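 note: growth inhibition of the cancer cell line, read out as cell viability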
Description: SANGER: Inhibition of human HCC2157 cell growth in a cell viability assay.

HEC-1 = assay type: functional, cell-based, Homo sapiens; conditions: Homo sapiens, HEC-1;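 note: growth inhibition of the cell line, read out with a cell viability assay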
Description: SANGER: Inhibition of human HEC-1 cell growth in a cell viability assay.

HLE = assay type: functional, cell-based, Homo sapiens; conditions: Homo sapiens, HLE;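 note: growth inhibition of human HLE cells, read out by a cell viability assay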
Description: SANGER: Inhibition of human HLE cell growth in a cell viability assay.

HuO-3N1 = assay type: functional, cell-based, Homo sapiens; conditions: Homo sapiens, HuO-3N1;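 note: cell viability readout used to measure how strongly compounds suppress proliferation of human HuO-3N1 cells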
Description: SANGER: Inhibition of human HuO-3N1 cell growth in a cell viability assay.

JAR = assay type: functional, cell-based, Homo sapiens; conditions: Homo sapiens, JAR;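 note: growth inhibition of human JAR cells determined with a cell viability assay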
Description: SANGER: Inhibition of human JAR cell growth in a cell viability assay.

KU-19-19 = assay type: functional, cell-based, Homo sapiens; conditions: Homo sapiens, KU-19-19
Description: SANGER: Inhibition of human KU-19-19 cell growth in a cell viability assay.

L-428 = assay type: functional, cell-based; conditions: Homo sapiens
Description: SANGER: Inhibition of human L-428 cell growth in a cell viability assay.

LS-513 = assay type: functional, cell-based, Homo sapiens; conditions: Homo sapiens, LS-513
Description: SANGER: Inhibition of human LS-513 cell growth in a cell viability assay.

MEL-HO = assay type: functional, cell-based, Homo sapiens; conditions: Homo sapiens, MEL-HO
Description: SANGER: Inhibition of human MEL-HO cell growth in a cell viability assay.

MKN-45 = assay type: functional, cell-based, Homo sapiens; conditions: Homo sapiens, MKN-45;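 note: growth inhibition of human MKN-45 cells, measured with a cell viability assay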
Description: SANGER: Inhibition of human MKN45 cell growth in a cell viability assay.

MZ2-MEL = assay type: functional, cell-based, Homo sapiens; conditions: Homo sapiens, MZ2-MEL;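 note: growth inhibition of MZ2-MEL cells read out with a cell viability assay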
Description: SANGER: Inhibition of human MZ2-MEL cell growth in a cell viability assay.

NCI-H1838 = assay type: functional, cell-based, Homo sapiens; conditions: Homo sapiens, NCI-H1838;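 note: growth inhibition of NCI-H1838 cells, determined with a cell viability readout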
Description: SANGER: Inhibition of human NCI-H1838 cell growth in a cell viability assay.

NCI-H226 = assay type: functional, cell-based, Homo sapiens; conditions: Homo sapiens, NCI-H226;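 note: cell viability read-out used to gauge growth inhibition of the cells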
Description: SANGER: Inhibition of human NCI-H226 cell growth in a cell viability assay.

NCI-H727 = assay type: functional, cell-based, Homo sapiens; conditions: Homo sapiens, NCI-H727;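 note: growth inhibition of human NCI-H727 cells, read out with a cell viability assay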
Description: SANGER: Inhibition of human NCI-H727 cell growth in a cell viability assay.

NOS-1 = assay type: functional, cell-based, Homo sapiens; conditions: Homo sapiens, NOS-1;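 note: growth inhibition of the human NOS-1 cell line, read out with a cell viability assay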
Description: SANGER: Inhibition of human NOS-1 cell growth in a cell viability assay.

NUGC-3 = assay type: functional, cell-based, Homo sapiens; conditions: Homo sapiens, NUGC-3;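 note: growth inhibition of human NUGC-3 cells, read out with a cell viability assay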
Description: SANGER: Inhibition of human NUGC-3 cell growth in a cell viability assay.

RERF-LC-MS = assay type: functional, cell-based, Homo sapiens; conditions: Homo sapiens, RERF-LC-MS;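 note: growth inhibition of human RERF-LC-MS cells, read out by a cell viability assay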
Description: SANGER: Inhibition of human RERF-LC-MS cell growth in a cell viability assay.

RKO = assay type: functional, cell-based, Homo sapiens; conditions: Homo sapiens, RKO;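 note: growth inhibition of human RKO cells, read out with a cell viability assay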
Description: SANGER: Inhibition of human RKO cell growth in a cell viability assay.

RMG-I = assay type: functional, cell-based, Homo sapiens; conditions: Homo sapiens, RMG-I;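 note: growth inhibition of human RMG-I cells, read out with a cell viability assay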
Description: SANGER: Inhibition of human RMG-I cell growth in a cell viability assay.

S-117 = assay type: functional, cell-based, Homo sapiens; conditions: Homo sapiens, S-117
Description: SANGER: Inhibition of human S-117 cell growth in a cell viability assay.

SF-539 = assay type: functional, cell-based, Homo sapiens; conditions: Homo sapiens, SF-539;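 note: Read-out is a cell viability assay, with IC50 reflecting inhibition of cell growth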
Description: SANGER: Inhibition of human SF539 cell growth in a cell viability assay.

SH-4 = assay type: functional, cell-based, Homo sapiens; conditions: Homo sapiens, SH-4;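 note: growth inhibition of SH-4 cells, read out with a cell viability assay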
Description: SANGER: Inhibition of human SH-4 cell growth in a cell viability assay.

SK-MEL-1 = assay type: functional, cell-based; conditions: Homo sapiens;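 note: growth inhibition of human SK-MEL-1 cells, read out by a cell viability assay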
Description: SANGER: Inhibition of human SK-MEL-1 cell growth in a cell viability assay.

SK-PN-DW = assay type: functional, cell-based; conditions: Homo sapiens;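 note: growth inhibition measured with a viability assay on these cells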
Description: SANGER: Inhibition of human SK-PN-DW cell growth in a cell viability assay.

SNU-C2B = assay type: functional, cell-based, Homo sapiens; conditions: Homo sapiens, SNU-C2B;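 note: cell viability readout used to measure compound-driven suppression of SNU-C2B cell proliferation, IC50 marking half-maximal growth inhibition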
Description: SANGER: Inhibition of human SNU-C2B cell growth in a cell viability assay.

SW1710 = assay type: functional, cell-based, Homo sapiens; conditions: Homo sapiens, SW1710;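 note: growth inhibition of SW1710 cells, determined with a cell viability assay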
Description: SANGER: Inhibition of human SW1710 cell growth in a cell viability assay.

SW48 = assay type: functional, cell-based, Homo sapiens; conditions: Homo sapiens, SW48;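 note: growth inhibition of SW48 cells, read out with a cell viability assay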
Description: SANGER: Inhibition of human SW48 cell growth in a cell viability assay.

SW684 = assay type: functional, cell-based, Homo sapiens; conditions: Homo sapiens, SW684;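 note: growth inhibition of human SW684 cells, measured by a cell viability assay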
Description: SANGER: Inhibition of human SW684 cell growth in a cell viability assay.

SW756 = assay type: functional, cell-based, Homo sapiens; conditions: Homo sapiens, SW756;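 note: growth inhibition of human SW756 cells, read out with a cell viability assay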
Description: SANGER: Inhibition of human SW756 cell growth in a cell viability assay.

T-24 = assay type: functional, cell-based, Homo sapiens; conditions: Homo sapiens, T-24;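 note: growth inhibition of T-24 cells, read out with a cell viability assay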
Description: SANGER: Inhibition of human T-24 cell growth in a cell viability assay.

T98G = assay type: functional, cell-based, Homo sapiens; conditions: Homo sapiens, T98G;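 note: growth inhibition of T98G cells, read out by a cell viability assay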
Description: SANGER: Inhibition of human T98G cell growth in a cell viability assay.

639-V = assay type: functional, cell-based, Homo sapiens; conditions: Homo sapiens, 639-V;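 note: growth inhibition of 639-V cells, read out with a cell viability assay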
Description: SANGER: Inhibition of human 639-V cell growth in a cell viability assay.

ACHN = assay type: functional, cell-based, Homo sapiens; conditions: Homo sapiens, ACHN;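 note: cell viability read-out used to gauge how strongly growth of human ACHN cells is suppressed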
Description: SANGER: Inhibition of human ACHN cell growth in a cell viability assay.

BCPAP = assay type: functional, cell-based, Homo sapiens; conditions: Homo sapiens, BCPAP;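 note: growth inhibition of BCPAP cells, read out in a cell viability assay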
Description: SANGER: Inhibition of human BCPAP cell growth in a cell viability assay.

CAL-54 = assay type: functional, cell-based, Homo sapiens; conditions: Homo sapiens, CAL-54;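 note: growth inhibition of CAL-54 cells, read out by a viability measurement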
Description: SANGER: Inhibition of human CAL-54 cell growth in a cell viability assay.

TE-11 = assay type: functional, cell-based, Homo sapiens; conditions: Homo sapiens, TE-11;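 note: growth inhibition of human TE-11 cells, read out by a cell viability assay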
Description: SANGER: Inhibition of human TE-11 cell growth in a cell viability assay.

TGW = assay type: functional, cell-based; conditions: Homo sapiens;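 note: growth inhibition of human TGW cells, read out with a cell viability assay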
Description: SANGER: Inhibition of human TGW cell growth in a cell viability assay.

UACC-62 = assay type: functional, cell-based, Homo sapiens; conditions: Homo sapiens, UACC-62;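 note: growth inhibition of human UACC-62 cells, read out by a cell viability assay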
Description: SANGER: Inhibition of human UACC-62 cell growth in a cell viability assay.

UACC-893 = assay type: functional, cell-based, Homo sapiens; conditions: Homo sapiens, UACC-893
Description: SANGER: Inhibition of human UACC-893 cell growth in a cell viability assay.

CAPAN-1 = assay type: functional, cell-based, Homo sapiens; conditions: Homo sapiens, CAPAN-1;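 note: growth suppression of CAPAN-1 cells, read out by a cell viability assay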
Description: SANGER: Inhibition of human CAPAN-1 cell growth in a cell viability assay.

COLO-679 = assay type: functional, cell-based, Homo sapiens; conditions: Homo sapiens, COLO-679
Description: SANGER: Inhibition of human COLO-679 cell growth in a cell viability assay.

EW-24 = assay type: functional, cell-based; conditions: Homo sapiens;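 note: human EW-24 cancer cell line, growth inhibition read out via a cell viability assay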
Description: SANGER: Inhibition of human EW-24 cell growth in a cell viability assay.

NCI-H510A = assay type: functional, cell-based; conditions: Homo sapiens;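 note: growth inhibition of NCI-H510A cells, read out with a cell viability assay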
Description: SANGER: Inhibition of human NCI-H510A cell growth in a cell viability assay.

Measured: IC50

CC(=O)O[C@@H]1[C@@H](OC(C)=O)[C@@H](O)[C@H](Oc2c(-c3ccc(O)cc3)oc3cc(O)cc(O)c3c2=O)O[C@H]1C
> 10000 nM: CP50-MEL-B | DOK | EW-18 | GCIY | KU-19-19 | MEL-HO | MZ2-MEL | RKO | SF-539 | SH-4 | SW1710 | SW756 | BCPAP
2.78 µM: HuO-3N1
9.05 µM: SK-MEL-1
5.65 µM: HCC2157
not listed: EW-24 | NCI-H510A
> 10 µM: all other assays above

COc1cc(F)c(F)c(Nc2ccc(I)cc2F)c1NS(=O)(=O)C1(CC(O)CO)CC1 (stereo unspecified)
4.24 µM: ETK-1
366 nM: KU-19-19
2210 nM: SF-539
0.153 µM: COLO-679
1230 nM: SW756
432 nM: DOK
1.33 µM: RERF-LC-MS
2180 nM: BCPAP
0.414 µM: LS-513
2020 nM: SW1710
1390 nM: RKO
39.4 nM: MEL-HO
4.15 µM: CAPAN-1
1180 nM: GCIY
85.6 nM: SH-4
319 nM: MZ2-MEL
21.5 nM: CP50-MEL-B
2770 nM: EW-18
4.34 µM: NUGC-3
not listed: MKN-45 | EW-24 | NCI-H510A
> 5 µM: all other assays above

COc1ccc(-c2ccc3c(N4CCOC[C@@H]4C)nc(N4CCOC[C@@H]4C)nc3n2)cc1CO [AZD-8055]
632 nM: SW1710
0.384 µM: HuO-3N1
1.76 µM: SK-PN-DW
141 nM: EW-18
1080 nM: SH-4
1.91 µM: ACHN
0.411 µM: NOS-1
0.748 µM: HLE
851 nM: KU-19-19
1.01 µM: T98G
409 nM: MZ2-MEL
884 nM: CP50-MEL-B
1580 nM: SF-539
1.1 µM: Daoy
0.707 µM: NUGC-3
868 nM: RKO
0.894 µM: ETK-1
1.61 µM: EW-1
1.83 µM: CAL-54
0.929 µM: UACC-893
0.968 µM: DEL
0.793 µM: DOHH-2
588 nM: BCPAP
1.11 µM: SW48
678 nM: MEL-HO
513 nM: DOK
1.97 µM: SW684
> 2000 nM: SW756
458 nM: GCIY
1.18 µM: HEC-1
not listed: MKN-45 | EW-24 | NCI-H510A
> 2 µM: all other assays above

O=c1cc(-c2cccc3c2Sc2ccccc2S3)oc(N2CCOCC2)c1 [KU-55933]
> 10000 nM: CP50-MEL-B | DOK | GCIY | KU-19-19 | MEL-HO | MZ2-MEL | RKO | SF-539 | SH-4 | SW1710 | SW756 | BCPAP
4.17 µM: HuO-3N1
not listed: EW-18 | EW-24 | NCI-H510A
> 10 µM: all other assays above

Cn1cc(C2=C(c3ccc(Cl)cc3Cl)C(=O)NC2=O)c2ccccc21 [SB-216763]
> 10000 nM: CP50-MEL-B | DOK | EW-18 | GCIY | KU-19-19 | MEL-HO | MZ2-MEL | RKO | SF-539 | SH-4 | SW1710 | BCPAP
1.21 µM: JAR
not listed: HCC2157 | SW756 | TGW
> 10 µM: all other assays above
